Columns and labels:
Format in all cases: physicochemical
[1] = Photostability of Butyl Methoxydibenzoylmethane in O/W sunscreen film, solar simulator, HPLC; details: for Residual Butyl Methoxydibenzoylmethane: solar simulator 2 hours (5400 kJ/m2)
Procedure: The photostability of Butyl Methoxydibenzoylmethane is determined by spreading the emulsion as a 20 μm thick film on a quartz plate. The film is irradiated using a solar simulator for 2 hours (5400 kJ/m2). After irradiation, the quartz plate is plunged into 5 ml of tetrahydrofurane. The amount of UV-A filter Butyl Methoxydibenzoylmethane is then determined using high performance liquid chromatography. The residual Butyl Methoxydibenzoylmethane is determined to be 42%.
The photostability of Butyl Methoxydibenzoylmethane in the comparative formulation B is determined as described above for formulation A. The residual Butyl Methoxydibenzoylmethane is determined to be 4%.

[2] = UV shielding properties: UV spectra in ethanol (absorption maximum, A1%1cm); parameters: Absorption maximum λmax: unit not given here; details: for Absorption maximum λmax / A^1%1 cm: UV spectra in ethanol; for A^1%1 cm: at the absorption maximum; for Absorption bands (coverage of UV range): UV spectrum in ethanol
From the text: The UV shielding properties of the bisbiphenyl triazine derivatives were investigated by measuring their UV spectra in ethanol. In the following table the investigated absorption maxima (λmax) together with the corresponding A^1%1cm values are listed.

[3] = Photostability of the UV filter in highly diluted ethanol solution under irradiation, analysed by UV spectroscopy; details: for Half time: first order kinetic fit, half-life under COLIPA standard sun irradiation
Procedure: The method used for assessment of photostability is based on the irradiation of a highly diluted solution of the UV-filter. The analysis after certain doses of irradiation was performed by UV-spectroscopy. The concentration of the UV-absorber in ethanol is adjusted to values between 1·10^−5 and 1·10^−6 mol/l, such that the absorbance of the solution in cuvette of 1 cm optical pathlength is equal or smaller than 0.2. The mutual protection of filter molecules can be excluded under such conditions.
Prior to irradiation of a sample the UVB-intensity at the sample position is measured with a UV-radiometer (RM-12, Dr. Gröbel Electronic GmbH). This radiometer was calibrated by comparison with a measurement of the spectral output of the metal halide lamp (including light guide and cut-off filter) using a wavelength-resolved radiometer (Gamma C11). Therefore the relationship of the reading of the RM-12 radiometer and the corresponding spectral output of the lamp is known, and one is able to determine the wavelength-resolved intensities by measuring the UVB-intensity. By changing the distance between the end of the light guide and the cuvette, the UVB-intensity can be varied in the range of 100 μW/cm^2 and 4500 μW/cm^2.
For sample irradiation the highest possible intensity was used (4.5 mW/cm^2 UVB-intensity measured with the Macam 103 radiometer). The irradiation time was varied from 0 to 180 min. The dose the sample has received after 180 minutes corresponds to 60 MED. During irradiation the sample was stirred. After certain intervals of irradiation, the samples were analysed in a UV-spectrometer (Perkin Elmer, Lambda 16).
From the absorbance values at each dose of irradiation the concentration may be calculated using Lambert-Beer's law. In order to get the half-life of the substance, a first order kinetic model was fitted to the experimental data. Since the UV-spectrum of the lamp and the UV-spectrum of the COLIPA standard sun are known, one can calculate the respective half-life of the UV-absorber under conditions of COLIPA standard sun irradiation [Bernd Herzog, Stefan Müller, Myriam Sohn, Uli Osterwalder, “New Insight and Prediction of Photostablity of Sunscreens”, SÖFW Journal 133, 26-36 (2007)].
The investigated half-time values and recovery after irradiation (10 MED) of some specific benzotropolones are listed in the table below: […]

[4] = Photostability of Ethylhexyl Methoxycinnemate in O/W sunscreen film, solar simulator, HPLC; details: for Residual Ethylhexyl Methoxycinnemate: solar simulator 4 hours (10800 kJ/m2)
Procedure: The photostability of the UV-B filter Ethylhexyl Methoxycinnemate is determined by spreading the emulsion as a 20 μm thick film on a quartz plate. The film is irradiated using a solar simulator for 4 hours (10800 kJ/m2). After irradiation, the quartz plate is plunged into 5 ml of tetrahydrofurane. The amount of UV-B filter Ethylhexyl Methoxycinnemate is then determined using high performance liquid chromatography. The residual Ethylhexyl Methoxycinnemate is determined to be 59%.
The photostability of Ethylhexyl Methoxycinnemate in the comparative formulation B is determined as described above for formulation A. The residual Ethylhexyl Methoxycinnemate is determined to be 38%.

[5] = O/W Sunscreen Formulation A (with P-01), 20 μm film on quartz plate
[6] = comparative formulation B (without P-01), 20 μm film
[7] = formulation A versus comparative formulation B

SMILES | Absorption maximum λmax [2] | A^1%1 cm [2] | Absorption bands (coverage of UV range) [2] | Half time [3] | other results
COc1ccc(C(=O)CC(=O)c2ccc(C(C)(C)C)cc2)cc1 [Butyl Methoxydibenzoylmethane, 1-[4-(1,1-dimethylethyl)phenyl]-3-(4-methoxyphenyl)propane-1,3-dione] |  |  |  |  | Residual Butyl Methoxydibenzoylmethane [1, 5]: 42%; Residual Butyl Methoxydibenzoylmethane [1, 6]: 4%
CCOC(=O)/C(=C\c1ccc(OC)cc1)P(=O)(OCC)OCC [Compound P-1] | 303 | 519 | broad absorption bands | 14 311 h | Photodegradation after irradiation of 10 MED [3]: no photodegradation; Stabilization factor of Ethylhexyl Methoxycinnemate [4, 7]: 1.55; Stabilization factor of Butyl Methoxydibenzoylmethane [1, 7]: at least 10
CCOC(=O)/C(=C\c1ccc(/C=C(\C(=O)OCC)P(=O)(OCC)OCC)cc1)P(=O)(OCC)OCC [Compound P-2] | 302 | 500 | broad absorption bands | 172 h | 
CCOC(=O)/C(=C\c1ccc(N(CC)CC)cc1)P(=O)(OCC)OCC [Compound P-3] | 366 | 624 | broad absorption bands | 320 h | 
CCOC(=O)/C(=C\c1cc(OC)c(O)c(OC)c1)P(=O)(OCC)OCC [Compound P-4] | 322 | 390 | broad absorption bands | 100 h | 
CCOP(=O)(OCC)C(=Cc1ccc(-c2ccccc2)cc1)P(=O)(OCC)OCC [Compound P-5] | 299 | 427 | broad absorption bands | 7 h | 
CCOP(=O)(OCC)C(=Cc1ccc(OC)cc1)P(=O)(OCC)OCC [Compound P-6] | 313 | 575 | broad absorption bands | 11285 h | 
CCOC(=O)/C(=C\c1ccc(-c2ccccc2)cc1)P(=O)(OCC)OCC [Compound P-7] | 302 | 650 | broad absorption bands | 466.6 h | Photodegradation after irradiation of 10 MED [3]: no photodegradation
CCOC(=O)/C(=C\c1ccc(NC(C)=O)cc1)P(=O)(OCC)OCC [Compound P-17] | 308 | 604 |  | 947.6 h | 
CCOC(=O)/C(=C\c1ccc(-c2ccc(/C=C(\C(=O)OCC)P(=O)(OCC)OCC)cc2)cc1)P(=O)(OCC)OCC [Compound P-19] | 324 | 733 |  | 220.6 h | 
CCOC(=O)C(=C1c2ccccc2-c2ccccc21)P(=O)(OCC)OCC [Compound P-20] | 314 | 371 |  | 449.2 h | 
CCOC(=O)/C(=C\c1ccc(O)c(OC)c1)P(=O)(OCC)OCC [Compound P-21] | 319 | 429 |  |  | 
CCOC(=O)/C(=C\c1cc(OC)c(OC)c(OC)c1)P(=O)(OCC)OCC [Compound P-22] | 299 | 357 |  | 262.8 h | 
CCCCC(CC)COC(=O)C=Cc1ccc(OC)cc1 (centres unmarked) [Ethylhexyl Methoxycinnemate, 2-ethylhexyl 4-methoxycinnamate] |  |  |  |  | Residual Ethylhexyl Methoxycinnemate [4, 5]: 59%; Residual Ethylhexyl Methoxycinnemate [4, 6]: 38%

— patent US8529877B2, “Benzylidene compounds comprising phosphono-groups” (BASF SE, priority 2008, dated 2013)
